The numbers were not newly measured in patent US8183280B2, “FAP inhibitors” (Vantia Limited, priority 2005, dated 2012), which cites them from elsewhere.

In the data set the test system is syngeneic tumours. Particulars: mice, oral administration; Cancer Res., 2004, 64: 5471.

`CC(C)[C@H](N)C(=O)N1CCC[C@H]1B(O)O` [ValboroPro]: the anti-tumour activity result is listed as “potent anti-tumour activity in mice”.
